Source: patent US8524755B2 (priority 2009, dated 2013)

Key:
5-HT transporter (h) = target: T1, 5-HT transporter (h) (Homo sapiens, UniProt P31645); assay: Binding 5-HT transporter (h) (aa); conditions: read-out: % Inhibition of Control Specific Binding @ 10 μM
T1 construct: expressed in transfected cells; host or cells: CHO cells
Method: (§1) Radioligand binding assay methods utilized to measure the activity of compounds of the invention will be familiar to those skilled in the art. In each assay case, the assay components such as, for example, the cell-type, ligand, reference compound and the like, will be familiar to practitioners of such an assay.
(§2) Analysis and Expression of Results: Compounds of the invention were tested in the biochemical assays and percent inhibition of specific binding was determined. The specific ligand binding to the receptors is defined as the difference between the total binding and the nonspecific binding determined in the presence of an excess of unlabelled ligand. The results are expressed as a percent inhibition of control specific binding (100−((measured specific binding/control specific binding)×100)) obtained in the presence of test compounds.

Glucocorticoid GR (h) = target: T2, Glucocorticoid GR (h) (Homo sapiens, UniProt P04150); assay: Binding GR (h) (ag); conditions: read-out: % Inhibition of Control Specific Binding @ 10 μM
T2 construct: IM-9 cells (cytosol); endogenous in cells; host or cells: IM-9 cells (cytosol)
T2 sequence (P04150 1-777): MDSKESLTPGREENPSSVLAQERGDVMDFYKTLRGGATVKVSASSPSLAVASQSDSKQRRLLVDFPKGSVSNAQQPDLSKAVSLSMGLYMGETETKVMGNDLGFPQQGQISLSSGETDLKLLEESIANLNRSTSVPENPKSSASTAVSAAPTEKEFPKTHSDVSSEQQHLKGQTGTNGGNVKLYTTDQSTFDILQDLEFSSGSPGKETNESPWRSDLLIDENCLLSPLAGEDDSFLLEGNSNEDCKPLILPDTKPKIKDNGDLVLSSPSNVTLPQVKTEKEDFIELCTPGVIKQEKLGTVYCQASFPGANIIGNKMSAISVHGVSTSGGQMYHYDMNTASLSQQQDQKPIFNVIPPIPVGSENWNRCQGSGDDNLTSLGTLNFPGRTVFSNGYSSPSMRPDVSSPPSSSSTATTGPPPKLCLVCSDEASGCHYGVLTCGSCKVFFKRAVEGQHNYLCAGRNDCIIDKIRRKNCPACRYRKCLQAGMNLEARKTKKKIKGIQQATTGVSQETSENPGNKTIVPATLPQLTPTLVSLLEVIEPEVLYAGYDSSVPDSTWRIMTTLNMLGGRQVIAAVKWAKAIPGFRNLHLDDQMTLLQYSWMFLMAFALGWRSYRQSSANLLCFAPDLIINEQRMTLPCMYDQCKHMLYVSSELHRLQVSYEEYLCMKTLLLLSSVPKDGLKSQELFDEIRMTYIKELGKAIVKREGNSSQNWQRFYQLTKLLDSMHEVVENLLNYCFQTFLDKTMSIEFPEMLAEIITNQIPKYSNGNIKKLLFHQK
Method: as §1, §2

Neurokinin NK1 (h) = target: T3, Neurokinin NK1 (h) (Homo sapiens, UniProt P25103); assay: Binding NK1 (h) (ag); conditions: read-out: % Inhibition of Control Specific Binding @ 10 μM
T3 construct: (endogenous); endogenous in cells; host or cells: U-373MG cells
Method: as §1, §2

Neurokinin NK3 (h) = target: T4, Neurokinin NK3 (h) (Homo sapiens, UniProt P29371); assay: Binding NK3 (h) (aa); conditions: read-out: % Inhibition of Control Specific Binding @ 10 μM
T4 construct: expressed in transfected cells; host or cells: CHO cells
T4 sequence (P29371 1-465): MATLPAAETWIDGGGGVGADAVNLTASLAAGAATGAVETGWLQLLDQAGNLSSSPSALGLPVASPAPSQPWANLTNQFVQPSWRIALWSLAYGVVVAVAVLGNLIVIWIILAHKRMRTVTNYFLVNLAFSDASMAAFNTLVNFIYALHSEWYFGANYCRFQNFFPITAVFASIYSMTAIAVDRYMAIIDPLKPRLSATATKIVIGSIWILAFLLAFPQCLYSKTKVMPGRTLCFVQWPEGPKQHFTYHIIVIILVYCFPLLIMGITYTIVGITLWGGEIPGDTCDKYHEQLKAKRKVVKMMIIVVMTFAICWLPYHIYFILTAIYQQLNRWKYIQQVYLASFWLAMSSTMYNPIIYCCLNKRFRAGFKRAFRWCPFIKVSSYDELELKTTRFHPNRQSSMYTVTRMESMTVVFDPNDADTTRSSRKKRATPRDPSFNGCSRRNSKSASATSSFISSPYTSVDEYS
Method: as §1, §2

KATP channel = assay: Binding KATP channel (aa); set-up: species or system rat
Method: as §1, §2

[1] = target: T5, Thyrotropin Releasing Hormone TRH1 (h) (Homo sapiens, UniProt P34981); assay: Binding TRH1 (h) (ag); conditions: read-out: % Inhibition of Control Specific Binding @ 10 μM
T5 construct: expressed in transfected cells; host or cells: CHO cells
T5 sequence (P34981 1-398): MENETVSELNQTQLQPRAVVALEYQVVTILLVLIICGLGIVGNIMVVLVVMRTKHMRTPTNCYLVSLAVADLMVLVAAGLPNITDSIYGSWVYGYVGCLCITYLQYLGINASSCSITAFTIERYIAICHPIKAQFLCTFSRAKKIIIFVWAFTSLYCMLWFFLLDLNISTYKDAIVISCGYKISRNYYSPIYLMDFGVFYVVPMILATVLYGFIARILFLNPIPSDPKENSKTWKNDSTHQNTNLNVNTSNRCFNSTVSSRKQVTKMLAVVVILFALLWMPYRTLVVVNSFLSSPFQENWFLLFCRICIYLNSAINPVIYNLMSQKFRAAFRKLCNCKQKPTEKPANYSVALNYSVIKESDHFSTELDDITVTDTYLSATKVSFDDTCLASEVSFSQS
Method: as §1, §2

SKCa channel = assay: Binding SKCa channel (aa); set-up: species or system rat
Method: as §1, §2

Angiotensin AT1 (h) = target: T6, Angiotensin AT1 (h) (Homo sapiens, UniProt P30556); assay: Binding AT1 (h) (aa); conditions: read-out: % Inhibition of Control Specific Binding @ 10 μM
T6 construct: expressed in transfected cells; host or cells: HEK-293 cells
T6 sequence (P30556 1-359): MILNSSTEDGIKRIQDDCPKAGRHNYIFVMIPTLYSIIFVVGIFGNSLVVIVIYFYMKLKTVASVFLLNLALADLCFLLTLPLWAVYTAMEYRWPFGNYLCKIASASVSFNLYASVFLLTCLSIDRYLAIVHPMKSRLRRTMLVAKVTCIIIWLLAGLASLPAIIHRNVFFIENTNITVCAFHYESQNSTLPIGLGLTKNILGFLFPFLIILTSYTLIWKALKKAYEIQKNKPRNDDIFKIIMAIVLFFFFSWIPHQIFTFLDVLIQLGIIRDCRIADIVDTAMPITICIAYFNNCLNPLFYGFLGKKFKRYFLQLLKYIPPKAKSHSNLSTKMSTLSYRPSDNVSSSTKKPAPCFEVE
Method: as §1, §2

[2] = system: Ca^2+ channel (L, verapamil site) (phenylalkylamine); assay: Binding Ca2+ channel (L, verapamil site) (aa); set-up: species or system rat
Method: as §1, §2

GABA (ns) = assay: Binding GABA (ns) (ag); set-up: species or system rat
Method: as §1, §2

[3] = target: T7, N neuronal α-BGTX-insensitive (α4β2) (Rattus norvegicus, UniProt P09483+P12390); assay: Binding N neuronal α-BGTX-insensitive (α4β2) (ag); conditions: read-out: % Inhibition of Control Specific Binding @ 10 μM
T7 construct: rat cerebral cortex; from tissue; host or cells: rat cerebral cortex
Method: as §1, §2

T3 sequence (P25103 whole entry): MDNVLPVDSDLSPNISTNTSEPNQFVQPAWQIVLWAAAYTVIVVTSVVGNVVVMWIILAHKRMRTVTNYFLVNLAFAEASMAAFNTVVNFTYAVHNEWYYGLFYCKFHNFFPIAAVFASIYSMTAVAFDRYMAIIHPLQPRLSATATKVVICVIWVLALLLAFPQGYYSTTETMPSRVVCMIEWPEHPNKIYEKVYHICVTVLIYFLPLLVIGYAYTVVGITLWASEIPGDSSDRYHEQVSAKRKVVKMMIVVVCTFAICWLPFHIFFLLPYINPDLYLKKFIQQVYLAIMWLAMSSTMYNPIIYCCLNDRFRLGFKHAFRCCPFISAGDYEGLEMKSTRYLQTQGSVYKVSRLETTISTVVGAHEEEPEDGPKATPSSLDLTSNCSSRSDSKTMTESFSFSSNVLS
T7 sequence (P09483 31-630): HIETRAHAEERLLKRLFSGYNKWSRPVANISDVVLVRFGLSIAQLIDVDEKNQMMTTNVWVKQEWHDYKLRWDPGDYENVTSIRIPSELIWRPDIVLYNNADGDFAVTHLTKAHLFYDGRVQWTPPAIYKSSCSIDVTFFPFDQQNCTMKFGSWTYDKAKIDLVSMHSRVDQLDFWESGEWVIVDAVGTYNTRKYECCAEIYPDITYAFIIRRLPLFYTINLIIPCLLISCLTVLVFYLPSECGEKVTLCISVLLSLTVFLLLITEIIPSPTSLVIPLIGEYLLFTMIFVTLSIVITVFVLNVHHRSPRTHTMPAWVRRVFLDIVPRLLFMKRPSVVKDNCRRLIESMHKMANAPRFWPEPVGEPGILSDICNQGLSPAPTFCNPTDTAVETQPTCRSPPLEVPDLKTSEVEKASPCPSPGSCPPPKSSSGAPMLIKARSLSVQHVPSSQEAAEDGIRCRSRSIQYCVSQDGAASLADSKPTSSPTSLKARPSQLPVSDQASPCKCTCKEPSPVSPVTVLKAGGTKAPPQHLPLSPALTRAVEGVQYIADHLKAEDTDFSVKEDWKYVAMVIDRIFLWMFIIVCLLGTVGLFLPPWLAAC
T7 sequence (P12390 25-500): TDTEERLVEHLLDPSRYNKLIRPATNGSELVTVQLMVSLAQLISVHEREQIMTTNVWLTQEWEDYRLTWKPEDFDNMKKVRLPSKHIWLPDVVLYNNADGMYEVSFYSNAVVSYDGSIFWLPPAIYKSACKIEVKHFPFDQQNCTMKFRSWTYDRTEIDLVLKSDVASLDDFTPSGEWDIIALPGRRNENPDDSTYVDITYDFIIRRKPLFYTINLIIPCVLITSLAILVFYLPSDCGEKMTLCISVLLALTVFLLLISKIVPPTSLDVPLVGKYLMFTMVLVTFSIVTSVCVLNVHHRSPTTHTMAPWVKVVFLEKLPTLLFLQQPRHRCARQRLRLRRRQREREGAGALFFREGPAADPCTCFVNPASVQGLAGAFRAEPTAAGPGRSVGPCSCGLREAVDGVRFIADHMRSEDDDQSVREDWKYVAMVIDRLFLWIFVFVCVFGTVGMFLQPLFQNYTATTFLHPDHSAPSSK
T1 sequence (P31645 whole entry): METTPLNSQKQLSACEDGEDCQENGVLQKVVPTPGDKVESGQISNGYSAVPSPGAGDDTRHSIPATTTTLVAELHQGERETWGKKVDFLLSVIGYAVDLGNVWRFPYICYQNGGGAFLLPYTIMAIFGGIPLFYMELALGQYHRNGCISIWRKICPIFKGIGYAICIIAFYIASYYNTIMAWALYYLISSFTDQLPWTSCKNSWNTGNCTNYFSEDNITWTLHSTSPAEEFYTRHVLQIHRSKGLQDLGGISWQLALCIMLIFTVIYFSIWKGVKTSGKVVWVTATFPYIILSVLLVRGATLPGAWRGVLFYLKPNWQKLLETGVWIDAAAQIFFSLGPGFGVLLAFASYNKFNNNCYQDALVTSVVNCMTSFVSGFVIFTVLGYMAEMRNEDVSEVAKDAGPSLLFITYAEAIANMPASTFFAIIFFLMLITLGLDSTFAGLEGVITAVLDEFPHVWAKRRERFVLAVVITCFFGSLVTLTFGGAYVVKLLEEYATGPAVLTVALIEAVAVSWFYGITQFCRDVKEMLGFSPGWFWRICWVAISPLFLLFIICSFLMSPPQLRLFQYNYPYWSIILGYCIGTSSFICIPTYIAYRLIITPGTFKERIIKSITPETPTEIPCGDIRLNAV

| Structure (SMILES) | inhibition at 10 µM (5-HT transporter (h)) [%] | inhibition at 10 µM (Glucocorticoid GR (h)) [%] | inhibition at 10 µM (Neurokinin NK1 (h)) [%] | inhibition at 10 µM (Neurokinin NK3 (h)) [%] | % Inhibition of Control Specific Binding @ 10 μM (KATP channel) [%] | inhibition at 10 µM [1] [%] | % Inhibition of Control Specific Binding @ 10 μM (SKCa channel) [%] | inhibition at 10 µM (Angiotensin AT1 (h)) [%] | % Inhibition of Control Specific Binding @ 10 μM [2] [%] | % Inhibition of Control Specific Binding @ 10 μM (GABA (ns)) [%] | inhibition at 10 µM [3] [%] |
| --- | --- | --- | --- | --- | --- | --- | --- | --- | --- | --- | --- |
| CC1(C)C(=O)N(c2ccc(C#N)c(C(F)(F)F)c2)C(=O)N1c1ccc(C(N)=O)c(F)c1 [(MIII), 4-(3-(4-cyano-3-(trifluoromethyl)phenyl)-5,5-dimethyl-2,4-dioxoimidazolidin-1-yl)-2-fluorobenzamide] | 13 | 0 | -9 | -2 | 7 | -5 | 1 | 6 | −1 | −10 | -11 |
| CC1(C)C(=O)N(c2ccc(C#N)c(C(F)(F)F)c2)C(=S)N1c1ccc(C(=O)O)c(F)c1 [(MI), 4-(3-(4-cyano-3-(trifluoromethyl)phenyl)-5,5-dimethyl-4-oxo-2-thioxoimidazolidin-1-yl)-2-fluorobenzoic acid] | 1 | 5 | -7 | -11 | 17 | 18 | −6 | 11 | −2 | −12 | 0 |
| CNC(=O)c1ccc(N2C(=O)N(c3ccc(C#N)c(C(F)(F)F)c3)C(=O)C2(C)C)cc1F [(MIV), 4-(3-(4-cyano-3-(trifluoromethyl)phenyl)-5,5-dimethyl-2,4-dioxoimidazolidin-1-yl)-2-fluoro-N-methylbenzamide] | 18 | 4 | -7 | -7 | 7 | 0 | −10 | 0 | −5 | 5 | -3 |
| CC1(C)C(=O)N(c2ccc(C#N)c(C(F)(F)F)c2)C(=S)N1c1ccc(C(N)=O)c(F)c1 [(MII), 4-(3-(4-Cyano-3-(trifluoromethyl)phenyl)-5,5-dimethyl-4-oxo-2-thioxoimidazolidin-1-yl)-2-fluorobenzamide] | 16 | 30 | 9 | 3 | 24 | -4 | 4 | 0 | −13 | 0 | -3 |
